Reference: patent US20250222005A1, “METHYLENE BLUE CONTAINING COMPOUNDS FOR THE TREATMENT OF METHAEMOGLOBINAEMIA” (Wis Ta Laboratories Ltd., priority 2022, published 2025)

Key:
[1] = molecular target: heme iron of haemoglobin (Homo sapiens, UniProt P68871+P69905); details: from crystal field theory (Jorgensen); cited from earlier work
[2] = tested on: methaemoglobin; assay: Methaemoglobin (metHb) levels by pulse oximetry in AD trial patients receiving oral LMTM; assay type: in vivo, human; details: for Methaemoglobin, mean %: Table 5A, patients with SpO2 <94% at baseline; for Methaemoglobin, mean %, post dose: 4 hours post-dose, baseline SpO2 <94%; for Methaemoglobin, mean % ± SE: Table 5B, all patients
Procedure: (§1) Methods: Eighteen AD trial participants randomised to unit 4/75/100/125 mg doses of LMTM had SPO2 levels below 94% at baseline. Patients were routinely monitored by pulse oximetry after 4 hrs, and after 2 and 6 weeks of twice daily dosing. Computational chemistry was used to understand LMT-heme binding. The study design and results from two Phase 3, double-blind, controlled, randomised, studies of LMTM as a potential treatment for AD were described elsewhere (see “Gauthier, S., et al. “Efficacy and safety of tau-aggregation inhibitor therapy in patients with mild or moderate Alzheimer's disease: a randomised, controlled, double-blind, parallel-arm, phase 3 trial.” Lancet 2016; 388:2873-2884.” and “Wilcock, G K, et al. “Potential of low dose leuco-methylthioninium bis(hydromethanesulphonate) (LMTM) monotherapy for treatment of mild Alzheimer's disease: cohort analysis as modified primary outcome in a Phase Ill clinical trial.” Journal of Alzheimer's Disease 2017; 61:435-457.). In summary, 890 mild/moderate AD patients were randomly assigned (3:3:4) to 150 mg/day, 250 mg/day or 8 mg/day (intended as a control) for 15-months (clinicaltrials.gov NCT01689246). Similarly, 800 patients with mild AD were randomly assigned to 200 mg/day or 8 mg/day LMTM for 18-months (clinicaltrials.gov NCT01689233). In both trials, MetHb and SpO2 levels were measured by pulse oximetery (Massimo Corporation rad 57) at screening, baseline (within 1 hour prior to dosing), post-dose during the 4-hour observation, and subsequent clinic visits at 2 and 6 weeks. Statistical analyses were performed using R-version 3.5.1, employing paired samples t-tests to compare mean SpO2 and metHb levels.

[3] = tested on: oxygen-haemoglobin dissociation curve; assay: Estimation of effect of LMT treatment on oxygen-haemoglobin dissociation curve (SpO2 to PaO2 conversion table); design: species or system human; details: patients with mild hypoxaemia treated with LMTM; SpO2 plotted at baseline-implied PaO2
[4] = tested on: patients with mild hypoxaemia; assay: Peripheral oxygen saturation (SpO2) by pulse oximetry in AD trial patients with baseline SpO2 below 94% receiving oral LMTM; assay type: in vivo, human; details: for Oxygen saturation, mean %: Baseline (1 hr) 92.167; for Difference in oxygen saturation with respect to baseline: pooled doses; for Oxygen saturation, mean %, post dose: 4 hours post-dose; for Change in mean SpO2 from baseline: four hours
Procedure: as §1

heme iron of haemoglobin, sequence (P69905 2-142 limits assumed): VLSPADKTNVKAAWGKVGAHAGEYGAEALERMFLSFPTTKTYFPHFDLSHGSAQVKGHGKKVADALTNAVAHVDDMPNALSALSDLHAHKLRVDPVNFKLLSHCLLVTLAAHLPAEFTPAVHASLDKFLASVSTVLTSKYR
heme iron of haemoglobin, sequence (P68871 2-147 limits assumed): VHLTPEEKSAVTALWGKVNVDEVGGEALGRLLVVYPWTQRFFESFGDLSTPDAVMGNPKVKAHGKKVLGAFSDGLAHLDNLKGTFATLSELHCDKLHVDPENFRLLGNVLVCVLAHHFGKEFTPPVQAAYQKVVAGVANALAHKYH

## CN(C)c1ccc2c(c1)Sc1cc(N(C)C)ccc1N2 [LMT, hydromethylthionine]
[1]
  Estimated field factor of the LMT-heme interaction: 1.2-1.5
[2]; LMT dose 4 mg, 4 hr, baseline 0.709
  Methaemoglobin, mean %: 0.733%
[2]; LMT dose 4 mg, Week 2, baseline 0.709
  Methaemoglobin, mean %: 0.732%
[2]; LMT dose 4 mg, Week 6, baseline 0.709
  Methaemoglobin, mean %: 0.769%
[2]; LMT dose 150 mg, 4 hr, baseline 0.721
  Methaemoglobin, mean %: 0.781%
[2]; LMT dose 150 mg, Week 2, baseline 0.721
  Methaemoglobin, mean %: 0.835%
[2]; LMT dose 150 mg, Week 6, baseline 0.721
  Methaemoglobin, mean %: 0.888%
[2]; LMT dose 200 mg, 4 hr, baseline 0.702
  Methaemoglobin, mean %: 0.760%
[2]; LMT dose 200 mg, Week 2, baseline 0.702
  Methaemoglobin, mean %: 0.849%
[2]; LMT dose 200 mg, Week 6, baseline 0.702
  Methaemoglobin, mean %: 0.873%
[2]; LMT dose 250 mg, 4 hr, baseline 0.696
  Methaemoglobin, mean %: 0.758%
[2]; LMT dose 250 mg, Week 2, baseline 0.696
  Methaemoglobin, mean %: 0.845%
[2]; LMT dose 250 mg, Week 6, baseline 0.696
  Methaemoglobin, mean %: 0.858%
[2]; single 4 mg dose, pre-dose 0.70
  Methaemoglobin, mean %, post dose: 0.87%
[2]; single high dose (indicated as 100 mg), pre-dose 0.90
  Methaemoglobin, mean %, post dose: 0.65%

## CN(C)c1ccc2c(c1)Sc1cc(N(C)C)ccc1N2 [LMTM, leuco-methylthioninium bis(hydromethanesulfonate)]
[2]; 8 mg (per day), 4 hr, baseline 0.709 ± 0.017, p 0.09732
  Methaemoglobin, mean % ± SE: 0.732 ± 0.017%
[2]; 8 mg (per day), Week 2, baseline 0.709 ± 0.017, p 0.1326
  Methaemoglobin, mean % ± SE: 0.733 ± 0.018%
[2]; 8 mg (per day), Week 6, baseline 0.709 ± 0.017, p 0.0006916
  Methaemoglobin, mean % ± SE: 0.770 ± 0.019%
[2]; 150 mg (per day), 4 hr, baseline 0.721 ± 0.029, p 0.02212
  Methaemoglobin, mean % ± SE: 0.7811 ± 0.029%
[2]; 150 mg (per day), Week 2, baseline 0.721 ± 0.029, p <0.0001
  Methaemoglobin, mean % ± SE: 0.831 ± 0.032%
[2]; 150 mg (per day), Week 6, baseline 0.721 ± 0.029, p <0.0001
  Methaemoglobin, mean % ± SE: 0.889 ± 0.034%
[2]; 200 mg (per day), 4 hr, baseline 0.702 ± 0.025, p 0.01967
  Methaemoglobin, mean % ± SE: 0.760 ± 0.023%
[2]; 200 mg (per day), Week 2, baseline 0.702 ± 0.025, p <0.0001
  Methaemoglobin, mean % ± SE: 0.849 ± 0.027%
[2]; 200 mg (per day), Week 6, baseline 0.702 ± 0.025, p <0.0001
  Methaemoglobin, mean % ± SE: 0.873 ± 0.030%
[2]; 250 mg (per day), 4 hr, baseline 0.696 ± 0.028, p 0.005868
  Methaemoglobin, mean % ± SE: 0.758 ± 0.028%
[2]; 250 mg (per day), Week 2, baseline 0.696 ± 0.028, p <0.0001
  Methaemoglobin, mean % ± SE: 0.837 ± 0.034%
[2]; 250 mg (per day), Week 6, baseline 0.696 ± 0.028, p <0.0001
  Methaemoglobin, mean % ± SE: 0.851 ± 0.033%
[2]; both treatment groups (4 mg and high single doses), patients with baseline SpO2 <94%
  Difference in metHb levels between baseline and 4-hours post-dose: no consistent difference
[2]; higher doses (150, 200 and 250 mg/day), baseline SpO2 <94% subgroup, not statistically significant
  Effect on metHb levels over 6 weeks: systematically increased
[3]
  Implied effect of treatment on the oxygen-haemoglobin dissociation curve: implied left-shift
[4]; patients with chronic hypoxaemia, single doses 4-125 mg and 6 weeks twice daily
  Enhancement of oxygen saturation: about 3%
[4]; pooled data all doses (8 mg/day and 150-250 mg/day), Week 2
  Oxygen saturation, mean %: 95.400%
[4]; pooled data all doses (8 mg/day and 150-250 mg/day), Week 6
  Oxygen saturation, mean %: 95.571%
[4]; pooled data all doses, Baseline (4 hr)
  Oxygen saturation, mean %: 95.333%
[4]; week 2, p=0.0034
  Difference in oxygen saturation with respect to baseline: +3.17%
[4]; week 6, p=0.0005
  Difference in oxygen saturation with respect to baseline: +3.23%
[4]; single 4 mg dose, patients with baseline SpO2 <94%, pre-dose 91.71
  Oxygen saturation, mean %, post dose: 95.43%
[4]; single 4 mg dose, p=0.0205
  Change in mean SpO2 from baseline: +3.72%
[4]; single high dose (75, 100 or 125 mg), p=0.0045
  Change in mean SpO2 from baseline: +2.82%
[4]; single high dose (75/100/125 mg indicated as 100 mg), baseline SpO2 <94%, pre-dose 92.45
  Oxygen saturation, mean %, post dose: 95.27%
